Results: patent US10092588B2, “Foamable compositions, breakable foams and their uses” (Foamix Pharmaceuticals Ltd., priority 2009, dated 2018)

Test: Solubility of mometasone furoate in foam composition, visual inspection
Type: physicochemical
Details: in the hydro-alcoholic foam formulation

In the case of `C[C@@H]1C[C@H]2[C@@H]3CCC4=CC(=O)C=C[C@]4(C)[C@@]3(Cl)[C@@H](O)C[C@]2(C)[C@@]1(OC(=O)c1ccco1)C(=O)CCl` [Mometasone furoate], the “Solubility of Mometasone Furoate” value is reported as “soluble”.
